Reference: US20240382509A1, “Cannabinoids C- and O-glycosides possessing anti-proliferative and anti-metastatic properties and process for preparation thereof” (Council of Scientific and Industrial Research, priority 2021, published 2024)
Where two headings read alike, the source gives them in different places.

How the values were obtained:
Panc-1 cells [1] = experiment: MTT cell viability assay, Panc-1; format: cell-based; details: for IC50: pancreatic cancer cells
Method: (§1) Cell viability assay: The cell viability was determined by the standard MTT assay method. Briefly, Panc-1, HCT-116, A549, PC3, MIAPaca-2, HT-29, MDA-MB-231, MCF7 cells, and fR2cells were seeded in 96 well tissue culture plates (Nunc) at a density of 4×10^3 cells per well and treated with varying concentrations of the test compounds in triplicates. DMSO was taken as a vehicle, and its final concentration was maintained at 0.2% in the culture medium. Doxorubicin was employed as a positive control. After 44 h of incubation, MTT dye solution was added into the medium, and cells were incubated for another 4 h at 37° C. in 5% CO2. The amount of colored formazan derivatives formed was measured by taking optical density (OD) using a microplate reader (TECAN, Infinite M200 Pro) at 570 nm, and the percentage of cell viability was calculated. The IC50 values were calculated using GraphPad Prism software (Version 5.0).

MIAPaCa-2 cells [2] = experiment: MTT cell viability assay, MIAPaCa-2; format: cell-based, human
Method: as §1

HCT-116 cells = experiment: MTT cell viability assay, HCT-116; format: cell-based; details: colorectal adenocarcinoma cells
Method: as §1

[3] = system: human colorectal adenocarcinoma cell line (HT-29); experiment: MTT cell viability assay, HT-29; format: cell-based; details: human colorectal adenocarcinoma cell line
Method: as §1

[4] = system: lung adenocarcinoma cells (A549); experiment: MTT cell viability assay, A549; format: cell-based
Method: as §1

PC3 cells = experiment: MTT cell viability assay, PC3; format: cell-based
Method: as §1

MCF-7 cells = experiment: MTT cell viability assay, MCF-7; format: cell-based; details: breast cancer cell of epithelial origin
Method: as §1

[5] = MTT cell viability assay, fR2 normal epithelial cells; format: cell-based, human; details: human, fR2 normal epithelial cells; MTT, 48 h; normal epithelial cell line; read-out: Cytotoxicity (IC50) fR2
Method: as §1

MIAPaCa-2 cells [6] = experiment: Cell scatter assay; format: cell-based, human; details: MIAPaCa-2, 1, 2, 3 μM, 36 h, compared to vehicle and parent molecule
Method: Cell scatter assay MIAPaCa-2 cells were seeded onto a 12 well plate at a seeding density of 500 cells/well and kept for 4-5 days, and there was the formation of scatter colonies since the cell line itself is a metastatic cell line. Accordingly, they were treated with 1 μM, 2 μM & 3 μM of compound 2, 2a, 2b, 3, 3a, 4, 4a & 4b for 36 h, and upon termination, they were washed with PBS and observed under an inverted microscope at 20× magnification (FIG. 3).

Panc-1 cells [7] = experiment: Colony formation assay; format: cell-based; details: Panc-1, 1000 cells/well, 5 days, compared to corresponding parent compounds
Method: Colony formation assay. […] cells were seeded onto 6 well plates with a seeding density of 1000 cells/well. The cells after attachment were treated with 2 (2a, 2b), 3 (3a, 3b), 4 (4a, 4b) along with DMSO as a vehicle control and incubated for 5-6 days. After incubation, the plates were washed with ice-cold PBS, and the cells were fixed with methanol for 5 min. After fixing. the cells were stained with 0.2% crystal violet stain for 1 h. The cells were then washed with distilled water to remove the stain and were observed under an inverted microscope at 20× magnification.
The anti-proliferative properties of glycosidic derivatives were further analysed by colony formation assay in pancreatic cancer cells. The novel C-glycosidic derivatives of compounds 1, 2, 3 and 4 viz 1b, 2b, 3b & 4b display anti-proliferative property (FIG. 2). Panc-1cells were seeded onto 6 well plates at seeding density 1000 cells/well and treated with indicated concentration of 1b, 2b, 3b and 4b derivatives along with their parent compounds and DMSO as vehicle for 5 days. Upon termination the cells were stained with crystal violet and images of field were photographed.

[8] = Homo sapiens, MIA PaCa-2, 48 h, read-out: Cytotoxicity (IC50) MIAPaCa-2, MTT, 48 h
[9] = Homo sapiens, HCT-116, 48 h, read-out: Cytotoxicity (IC50) HCT-116, MTT, 48 h
[10] = Homo sapiens, HT-29, 48 h, read-out: Cytotoxicity (IC50) HT-29, MTT, 48 h
[11] = Homo sapiens, PC-3, 48 h, read-out: Cytotoxicity (IC50) PC3, MTT, 48 h
[12] = Homo sapiens, MCF7, 48 h, read-out: Cytotoxicity (IC50) MCF-7, MTT, 48 h
[13] = Homo sapiens, PANC-1, 48 h, read-out: Cytotoxicity (IC50) Panc-1, MTT, 48 h
[14] = Homo sapiens, A549, 48 h, read-out: Cytotoxicity (IC50) A549, MTT, 48 h

Question: Which results are given for `CCCCCc1cc(O[C@@H]2OC(CO)[C@@H](O)C(O)C2O)c2c(c1)OC(C)(C)[C@@H]1CC=C(C)C[C@@H]21` (single isomer, unassigned) [Compound 3a, Δ^8-tetrahydrocannabinol-1-O-β-D-glucopyranoside]?
Answer: IC50 (Panc-1 cells [1]; read-out: Cytotoxicity (IC50) Panc-1, MTT, 48 h): 3.16 µM; IC50 (MIAPaCa-2 cells [2]; [8]): 0.742 µM; IC50 (HCT-116 cells; [9]): 30.2 µM; IC50 [3, 10]: 10.7 µM; IC50 ([4]; read-out: Cytotoxicity (IC50) A549, MTT, 48 h): 2.15 µM; IC50 (PC3 cells; [11]): 38 µM; IC50 (MCF-7 cells; [12]): 34.9 µM; IC50 at 48 h [5]: > 100 µM; cell scattering (MIAPaCa-2 cells [6]): did not prevent cell scattering

Question: What does the source list for `CCCCCc1cc(O)c2c(c1)OC(C)(C)c1ccc(C)cc1-2` (single isomer, unassigned) [Compound 4, Cannabinol, reference compound]?
Answer: IC50 (Panc-1 cells [1]; [13]): 11.8 µM; IC50 (MIAPaCa-2 cells [2]; [8]): 1.63 µM; IC50 (HCT-116 cells; [9]): 47.1 µM; IC50 [3, 10]: 20.4 µM; IC50 [4, 14]: 2.13 µM; IC50 (PC3 cells; [11]): 28 µM; IC50 (MCF-7 cells; [12]): 50.6 µM

Question: With `CCCc1cc(O)c2c(c1)OC(C)(C)[C@@H]1CCC(C)=C[C@@H]21` [Compound 1, Δ^9-tetrahydrocannabivarin, reference compound] as the compound, how does the IC50 (Panc-1 cells [1]; MTT, 48 h, read-out: Cytotoxicity (IC50) Panc-1) read?
Answer: 9.28 µM

Question: What about the IC50 (MIAPaCa-2 cells [2]; MTT, 48 h, read-out: Cytotoxicity (IC50) MIAPaCa-2) of the same compound?
Answer: 23.2 µM

Question: What about the IC50 (HCT-116 cells; MTT, 48 h, read-out: Cytotoxicity (IC50) HCT-116) of the same compound?
Answer: 10.7 µM

Question: What about the IC50 ([3]; MTT, 48 h, read-out: Cytotoxicity (IC50) HT-29) of the same compound?
Answer: 46.2 µM

Question: And the IC50 ([4]; MTT, 48 h, read-out: Cytotoxicity (IC50) A549)?
Answer: 39.4 µM

Question: And the IC50 (PC3 cells; MTT, 48 h, read-out: Cytotoxicity (IC50) PC3)?
Answer: 88.2 µM

Question: And the IC50 (MCF-7 cells; MTT, 48 h, read-out: Cytotoxicity (IC50) MCF-7)?
Answer: > 100 µM

Question: For `CCCc1cc(O[C@@H]2OC(CO)[C@@H](O)C(O)C2O)c2c(c1)OC(C)(C)[C@@H]1CC=C(C)C[C@@H]21` (stereo partly drawn) [Compound 1a, Δ^8-tetrahydrocannabivarin-1-O-β-D-glucopyranoside], which IC50 (Panc-1 cells [1]; [13]) is on record?
Answer: 21.4 µM

Question: What about the IC50 (MIAPaCa-2 cells [2]; [8]) of the same compound?
Answer: > 100 µM

Question: And the IC50 (HCT-116 cells; [9])?
Answer: 32.9 µM

Question: What about the IC50 [3, 10] of the same compound?
Answer: > 100 µM

Question: What about the IC50 [4, 14] of the same compound?
Answer: 53.1 µM

Question: What about the IC50 (PC3 cells; [11]) of the same compound?
Answer: > 100 µM

Question: What about the IC50 (MCF-7 cells; [12]) of the same compound?
Answer: 90.6 µM

Question: With `CCCc1cc2c(c(O)c1[C@@H]1OC(CO)[C@@H](O)C(O)C1O)[C@@H]1CC(C)=CC[C@H]1C(C)(C)O2` (stereo partly drawn) [Compound 1b, Δ^8-tetrahydrocannabivarin-2-C-β-D-glucopyranoside] as the compound, how does the IC50 (Panc-1 cells [1]; Homo sapiens, PANC-1, 48 h, MTT, 48 h, read-out: Cytotoxicity (IC50) Panc-1) read?
Answer: 4.12 µM

Question: What about the “fold activity compared to parent compound, pancreatic cancer cells” value (Panc-1 cells [1]; ratio of IC50 parent vs derivative, Panc-1) of the same compound?
Answer: > 2 fold

Question: What about the IC50 (MIAPaCa-2 cells [2]; Homo sapiens, MIA PaCa-2, 48 h, MTT, 48 h, read-out: Cytotoxicity (IC50) MIAPaCa-2) of the same compound?
Answer: 9.2 µM

Question: And the IC50 (HCT-116 cells; Homo sapiens, HCT-116, 48 h, MTT, 48 h, read-out: Cytotoxicity (IC50) HCT-116)?
Answer: 3.91 µM

Question: And the IC50 ([3]; Homo sapiens, HT-29, 48 h, MTT, 48 h, read-out: Cytotoxicity (IC50) HT-29)?
Answer: 40.2 µM

Question: What about the IC50 ([4]; Homo sapiens, A549, 48 h, MTT, 48 h, read-out: Cytotoxicity (IC50) A549) of the same compound?
Answer: 35.7 µM

Question: And the IC50 (PC3 cells; Homo sapiens, PC-3, 48 h, MTT, 48 h, read-out: Cytotoxicity (IC50) PC3)?
Answer: 24 µM

Question: And the IC50 (MCF-7 cells; Homo sapiens, MCF7, 48 h, MTT, 48 h, read-out: Cytotoxicity (IC50) MCF-7)?
Answer: > 100 µM

Question: And the “anti-proliferative potential in colony formation assay” value (Panc-1 cells [7])?
Answer: strong anti-proliferative potential
